From patent EP4768477A1 (Yichang Humanwell Pharmaceutical Co., Ltd., priority 2024, dated 2025) come the findings set out here.

Data set [1] deals with gastrointestinal peristalsis. Kind of data set: Effect on gastrointestinal peristalsis (charcoal propulsion). The settings on record: 3 mg/kg, single subcutaneous injection, SD rats.
The subject of data set [2] is formalin-induced inflammatory pain model. More on the design: species or system SD rats. Particulars: rat, in vivo.
The next data set deals with T1, hKOR (Homo sapiens, UniProt P41145).
T1 construct: expressed in transfected cells; host or cells: Human embryonic kidney cells 293 (293-KOR)
T1 sequence (P41145 whole entry): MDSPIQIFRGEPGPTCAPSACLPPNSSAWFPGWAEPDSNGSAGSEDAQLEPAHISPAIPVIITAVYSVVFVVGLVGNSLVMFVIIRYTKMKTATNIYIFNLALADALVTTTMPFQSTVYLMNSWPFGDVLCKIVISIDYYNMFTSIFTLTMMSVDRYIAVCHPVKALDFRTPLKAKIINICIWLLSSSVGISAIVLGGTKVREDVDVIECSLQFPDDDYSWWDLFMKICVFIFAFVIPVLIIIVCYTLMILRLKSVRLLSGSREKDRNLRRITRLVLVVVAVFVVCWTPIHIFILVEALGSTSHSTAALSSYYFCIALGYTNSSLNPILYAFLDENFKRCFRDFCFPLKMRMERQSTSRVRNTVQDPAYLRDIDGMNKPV
The data set can be described thus: Agonistic function, cAMP method, 293-KOR cells. The data set is classed as cell-based. Particulars: forskolin. The procedure: • a. […] Prepare 8 × drug-containing solution with buffe. • c. […] Incubate for 1 h at room temperature. • j.

Where no end group is shown, it is not given here.

As to `CN1CC[C@]23c4c5ccc(O)c4O[C@H]2[C@@H](O)C=C[C@H]3[C@H]1C5` [Morphine], the “effect on the gastrointestinal peristalsis in rats (charcoal propulsion rate)” value in data set [1] is given as “significant inhibitory effect”. In addition, in data set [2], the MPE% is listed as 75.9±28.9 %.

In general, EC50 refers to the midpoint of the concentration-response curve. For orientation: Emax means the greatest response seen or fitted, relative to the assay's reference. Take YGGFLRRIRP [Dynorphin A1-10]: on hKOR, the concentration for a half-maximal effect (EC50) came to 650 pM and the Emax is 102%.
